{"source": "patent US11903921B2", "about": "(priority 2020, dated 2024)", "origin": "cited, not measured here", "key": {"[1]": {"tested_on": "basophils"}, "[2]": {"tested_on": "ovalbumin-induced asthma", "details": "through inhibition of NF-κB activity"}, "[3]": {"tested_on": "hyaluronan", "details": "inhibitor of hyaluronan; compared with 4-MU"}, "[4]": {"tested_on": "LPS-induced acute pulmonary inflammation", "details": "100 μmol/kg bodyweight, mouse"}, "[5]": {"tested_on": "influenza and respiratory tract infections", "details": "prophylaxis and treatment"}, "[6]": {"tested_on": "SEB-exposed mice", "details": "mouse, in vivo"}, "[7]": {"details": "animal and human studies; orally in water, inhaled, intravenous"}}, "data": [{"smiles": "O=c1c(O)c(-c2ccc(O)c(O)c2)oc2cc(O)ccc12", "note": "[Fisetin]", "values": [{"measurement": "expression of T(H)2-type cytokines (IL-4, IL-13, and IL-5)", "setting": "[1]", "value": "powerfully suppress"}, {"measurement": "efficacy in ovalbumin-induced asthma", "setting": "[2]", "value": "effective"}, {"measurement": "effective dose relative to 4-MU", "setting": "[3]", "value": 10, "unit": "times lower"}, {"measurement": "anti-inflammatory effects compared with dexamethasone", "setting": "[4]", "value": "more pronounced than dexamethasone"}, {"measurement": "measures of inflammation", "setting": "[4]", "value": "significantly reduced numerous measures of inflammation"}]}, {"smiles": "CCCCCCCCCCCCCCCC(=O)NCCO", "note": "[PEA, palmitoylethanolamide]", "values": [{"measurement": "efficacy and safety in influenza and respiratory tract infections", "setting": "[5]", "value": "effective and safe"}]}, {"smiles": "Cc1cc(=O)oc2cc(O)ccc12", "note": "[4-MU, 7-Hydroxy-4-methyl-2H-chromen-2-one]", "values": [{"measurement": "SEB-induced lung permeability", "setting": "[6]", "value": "reduction in SEB-induced lung permeability"}, {"measurement": "cytokine production", "setting": "[6]", "value": "reduced cytokine production"}, {"measurement": "expression of HAS-1, HAS-2, and HAS-3", "setting": "[6]", "value": "reduces expression of HAS-1, HAS-2, and HAS-3"}, {"measurement": "levels of HA in the lungs", "setting": "[6]", "value": "reduced levels of HA"}]}, {"smiles": "[HH]", "note": "[Molecular hydrogen]", "values": [{"measurement": "harmlessness", "setting": "[7]", "value": "essentially harmless"}]}]}
